These results are taken from patent US8354246B2, “Non-MCCJ25-related lariat-peptide inhibitors of bacterial RNA polymerase” (priority 2006, dated 2013).

Bridge positions count the residues as written; N and C are the ends. Peptide text beside a SMILES is read from it.

The target of data set [1] is T1, Escherichia coli σ^70 RNAP holoenzyme (Escherichia coli, UniProt P0A8T7).
T1 construct: purchased Epicentre, Inc
The data set can be described thus: fluorescence-detected abortive initiation assay. Conditions: lacUV5-12 DNA fragment, 37° C. Format: biochemical. As for the experimental part:
(§1) Following incubation of reaction mixtures for 5 min at 22° C., 1 μl 1.1 μM DNA fragment lacUV5-12 (Mukhopadhyay et al. (2001) Cell 106, 453-463) was added. Following further incubation of reaction mixtures for […] at 37° C., 0.5 μl 1 mg/ml heparin (Sigma, Inc.; omitted in experiments with T. thermophilus RNAP) and 0.5 μl of 2.75 mM (γ-AmNS)UTP (Molecular Probes, Inc.) were added, and reaction mixtures were transferred to sub-micro fluorometer cuvettes (Starna Cells, Inc.). Following further incubation of reaction mixtures for 2 min at 37° C., RNA synthesis was initiated by addition of 2 μl 11 mM ApA (Sigma, Inc.), and fluorescence emission intensity was monitored for 5 min at 37° C. [excitation wavelength=360 nm and emission wavelength=500 nm; excitation and emission slit widths=4 nm; QuantaMaster QM1 spectrofluorometer (PTI, Inc.)]. The quantity of UMP incorporated into RNA was determined from the quantity of (γ-AmNS) UTP consumed, which, in turn, was calculated as follows (Schlageck et al. 1979): (γ-AmNS)UTPconsumed=[(γ-AmNS)UTP0](Ft−F0)/(12.4×F0) where (γ-AmNS)UTP0 is the quantity of (γ-AmNS)UTP at time 0, F0 is the fluorescence emission intensity at time 0, and Ft is the fluorescence emission intensity at time t.

The target of data set [2] is T2, Thermus thermophilus σ^A RNAP holoenzyme (Thermus thermophilus, UniProt Q8RQE8).
T2 construct: made in house
Put plainly: fluorescence-detected abortive initiation assay. Conditions: lacUV5-12 DNA fragment, 37° C. It counts as biochemical. As for the experimental part: as §1

In data set [3] the test system is Thermus-Deinoccoccus bacterial RNAP. Conditions: Yuzenkova, et al. (2002); cited from earlier work.
For data set [4] the following is noted: tested thermal and chemical denaturants; cited from earlier work.
For data set [5], the system named is Gram-positive bacterial RNAP. Conditions: Yuzenkova, et al. (2002); cited from earlier work.
The test system of data set [6] is mesophilic endo- and exopeptidease. To be noted: tested mesophilic endo- and exopeptidases; cited from earlier work.

T1 sequence (P00579 whole entry): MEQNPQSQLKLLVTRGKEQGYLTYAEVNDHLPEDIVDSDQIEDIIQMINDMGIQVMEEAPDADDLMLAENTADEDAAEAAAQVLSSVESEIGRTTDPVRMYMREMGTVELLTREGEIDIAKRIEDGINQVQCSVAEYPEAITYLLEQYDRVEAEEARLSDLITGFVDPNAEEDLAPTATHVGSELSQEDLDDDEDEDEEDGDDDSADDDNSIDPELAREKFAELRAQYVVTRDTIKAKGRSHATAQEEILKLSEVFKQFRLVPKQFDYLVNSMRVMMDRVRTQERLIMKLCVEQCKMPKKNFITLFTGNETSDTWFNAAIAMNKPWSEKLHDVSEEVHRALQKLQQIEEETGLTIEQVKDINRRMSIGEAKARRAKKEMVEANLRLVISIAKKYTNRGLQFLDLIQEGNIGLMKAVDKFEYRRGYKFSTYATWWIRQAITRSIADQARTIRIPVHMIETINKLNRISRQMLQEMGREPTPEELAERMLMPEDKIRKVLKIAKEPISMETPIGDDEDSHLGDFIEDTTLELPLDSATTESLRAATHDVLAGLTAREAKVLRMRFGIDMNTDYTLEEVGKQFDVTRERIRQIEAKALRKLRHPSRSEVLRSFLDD
T1 sequence (P0A8T7 whole entry): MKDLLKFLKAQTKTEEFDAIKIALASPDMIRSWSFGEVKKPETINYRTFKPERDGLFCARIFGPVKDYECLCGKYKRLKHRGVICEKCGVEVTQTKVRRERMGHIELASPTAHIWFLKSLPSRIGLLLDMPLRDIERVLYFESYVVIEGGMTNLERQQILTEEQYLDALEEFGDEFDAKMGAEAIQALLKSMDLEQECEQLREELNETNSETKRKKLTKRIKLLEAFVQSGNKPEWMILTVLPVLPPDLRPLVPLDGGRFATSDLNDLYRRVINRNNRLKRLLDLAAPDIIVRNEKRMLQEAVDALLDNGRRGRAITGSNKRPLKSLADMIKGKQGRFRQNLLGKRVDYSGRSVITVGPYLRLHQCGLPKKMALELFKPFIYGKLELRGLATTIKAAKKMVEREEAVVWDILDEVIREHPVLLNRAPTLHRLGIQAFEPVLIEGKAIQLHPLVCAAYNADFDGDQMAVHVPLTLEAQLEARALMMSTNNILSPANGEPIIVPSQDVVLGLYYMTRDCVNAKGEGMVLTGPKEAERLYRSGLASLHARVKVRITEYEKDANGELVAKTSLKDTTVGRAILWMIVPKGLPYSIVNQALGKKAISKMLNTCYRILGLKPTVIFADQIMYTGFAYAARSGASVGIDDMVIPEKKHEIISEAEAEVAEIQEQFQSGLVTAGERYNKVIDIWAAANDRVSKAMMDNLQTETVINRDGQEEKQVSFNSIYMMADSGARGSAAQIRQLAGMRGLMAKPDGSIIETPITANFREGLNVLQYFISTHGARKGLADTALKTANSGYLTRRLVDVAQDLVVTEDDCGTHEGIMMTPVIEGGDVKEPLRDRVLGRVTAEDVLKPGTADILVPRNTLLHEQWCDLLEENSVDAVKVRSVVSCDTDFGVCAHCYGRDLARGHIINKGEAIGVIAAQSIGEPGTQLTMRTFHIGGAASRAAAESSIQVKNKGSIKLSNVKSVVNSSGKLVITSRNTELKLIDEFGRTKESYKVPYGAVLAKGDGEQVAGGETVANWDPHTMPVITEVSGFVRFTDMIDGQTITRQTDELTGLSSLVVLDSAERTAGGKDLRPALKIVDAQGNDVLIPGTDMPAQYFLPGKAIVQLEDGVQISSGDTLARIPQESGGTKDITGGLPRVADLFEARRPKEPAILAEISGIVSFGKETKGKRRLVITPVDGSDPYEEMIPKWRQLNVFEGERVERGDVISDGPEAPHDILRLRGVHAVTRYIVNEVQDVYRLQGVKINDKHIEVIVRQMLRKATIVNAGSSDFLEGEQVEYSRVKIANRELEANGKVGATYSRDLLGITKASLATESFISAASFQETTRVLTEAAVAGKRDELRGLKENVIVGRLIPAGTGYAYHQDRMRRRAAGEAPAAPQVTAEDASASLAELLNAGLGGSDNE
T1 sequence (P0A8V2 whole entry, further chain): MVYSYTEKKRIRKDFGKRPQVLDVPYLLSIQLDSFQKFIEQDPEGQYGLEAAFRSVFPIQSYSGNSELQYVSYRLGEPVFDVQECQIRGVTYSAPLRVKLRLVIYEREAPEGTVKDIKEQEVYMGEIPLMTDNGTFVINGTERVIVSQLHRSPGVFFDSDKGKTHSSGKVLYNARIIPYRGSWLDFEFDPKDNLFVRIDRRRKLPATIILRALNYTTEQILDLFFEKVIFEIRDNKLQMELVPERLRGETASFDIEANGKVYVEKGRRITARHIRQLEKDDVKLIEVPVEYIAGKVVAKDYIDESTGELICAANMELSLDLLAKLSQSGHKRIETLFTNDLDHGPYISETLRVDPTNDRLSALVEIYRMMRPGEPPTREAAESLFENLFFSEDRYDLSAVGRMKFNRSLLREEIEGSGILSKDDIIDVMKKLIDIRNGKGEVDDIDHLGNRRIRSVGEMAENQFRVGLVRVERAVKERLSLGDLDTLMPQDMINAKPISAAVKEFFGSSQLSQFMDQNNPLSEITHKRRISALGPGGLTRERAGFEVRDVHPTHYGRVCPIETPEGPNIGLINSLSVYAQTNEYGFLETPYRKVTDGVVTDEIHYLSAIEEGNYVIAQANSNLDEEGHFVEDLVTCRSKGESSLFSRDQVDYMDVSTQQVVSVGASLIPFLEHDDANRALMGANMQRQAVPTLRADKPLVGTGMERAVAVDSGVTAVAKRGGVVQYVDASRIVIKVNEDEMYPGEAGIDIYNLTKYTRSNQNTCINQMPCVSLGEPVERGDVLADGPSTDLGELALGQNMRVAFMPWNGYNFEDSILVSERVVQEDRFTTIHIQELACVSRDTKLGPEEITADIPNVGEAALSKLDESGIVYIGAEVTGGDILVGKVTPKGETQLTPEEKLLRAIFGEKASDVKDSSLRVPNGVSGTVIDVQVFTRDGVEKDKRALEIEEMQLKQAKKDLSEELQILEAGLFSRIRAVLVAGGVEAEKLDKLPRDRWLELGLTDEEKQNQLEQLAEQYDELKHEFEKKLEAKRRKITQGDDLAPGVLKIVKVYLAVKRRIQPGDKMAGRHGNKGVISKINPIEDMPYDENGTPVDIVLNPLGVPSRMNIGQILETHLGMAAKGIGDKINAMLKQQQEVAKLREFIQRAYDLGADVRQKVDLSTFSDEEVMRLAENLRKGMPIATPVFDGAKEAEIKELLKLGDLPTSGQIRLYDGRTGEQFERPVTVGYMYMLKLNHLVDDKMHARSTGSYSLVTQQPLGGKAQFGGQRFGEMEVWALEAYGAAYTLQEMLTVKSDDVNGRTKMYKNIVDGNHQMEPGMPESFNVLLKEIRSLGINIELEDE
T1 sequence (P0A800 whole entry, further chain): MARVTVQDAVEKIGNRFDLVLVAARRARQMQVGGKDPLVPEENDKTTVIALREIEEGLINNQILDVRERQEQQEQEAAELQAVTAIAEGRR
T1 sequence (P0A7Z4 whole entry, further chain): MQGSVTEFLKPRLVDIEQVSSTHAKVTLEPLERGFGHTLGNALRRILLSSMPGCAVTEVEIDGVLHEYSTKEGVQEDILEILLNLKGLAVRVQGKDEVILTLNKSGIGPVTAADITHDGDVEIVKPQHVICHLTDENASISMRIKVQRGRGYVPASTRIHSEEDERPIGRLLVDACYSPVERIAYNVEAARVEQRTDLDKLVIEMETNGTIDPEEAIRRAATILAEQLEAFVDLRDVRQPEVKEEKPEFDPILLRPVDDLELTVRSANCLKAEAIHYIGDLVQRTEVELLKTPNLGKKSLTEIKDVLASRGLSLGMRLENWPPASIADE

One may read the IC50 as the concentration that gives 50% inhibition. A high value points to lower potency. With `C[C@@H](O)[C@@H]1NC(=O)CNC(=O)[C@H](Cc2c[nH]cn2)NC(=O)[C@H](Cc2c[nH]c3ccccc23)NC(=O)[C@H](CC(N)=O)NC(=O)CNC(=O)C[C@@H](C(=O)N[C@@H](Cc2c[nH]c3ccccc23)C(=O)N[C@@H](Cc2ccccc2)C(=O)N[C@@H](Cc2ccccc2)C(=O)N[C@@H](CC(N)=O)C(=O)N[C@@H](Cc2ccc(O)cc2)C(=O)N[C@@H](Cc2ccc(O)cc2)C(=O)N[C@@H](Cc2c[nH]c3ccccc23)C(=O)O)NC(=O)[C@@H]2CCCN2C(=O)[C@H](CO)NC1=O` [RES-701-3] (GNWHGTSPDWFFNYYW-OH; lactam N-9; C-terminus assumed), the concentration for half-maximal inhibition (IC50) in data set [1] came out at 20 µM; in data set [2] it was 2 µM.

With `CC[C@H](C)[C@H](NC(=O)[C@H](Cc1ccccc1)NC(=O)[C@@H](NC(=O)[C@H](Cc1cnc[nH]1)NC(=O)CNC(=O)CNC(=O)[C@H](Cc1ccccc1)NC(=O)[C@H](CC(C)C)NC(=O)[C@@H]1CC(=O)NCC(=O)N[C@@H](Cc2ccc(O)cc2)C(=O)N2CCC[C@H]2C(=O)N[C@@H](Cc2c[nH]c3ccccc23)C(=O)N[C@@H](Cc2c[nH]c3ccccc23)C(=O)N[C@@H](CC(=O)O)C(=O)N[C@@H](Cc2ccc(O)cc2)C(=O)N[C@@H](CCCNC(=N)N)C(=O)N1)[C@@H](C)O)C(=O)N[C@@H](CO)C(=O)N1CCC[C@H]1C(=O)O` [propeptin] (GYPWWDYRDLFGGHTFISP-OH; lactam N-9), the IC50 in data set [1] came out at 30 µM; in data set [2], 5 µM.

Take “Gly1-Gly2-Ala3-Gly4-His5-Pro6-Val7-Glu8-Tyr9-Phe10-Val11-Gly12-Ile13-Gly14-Thr15-Pro16-Ile17-Ser18-Phe19-Tyr20-Gly21 cyclic(8→1) peptide [MccJ25]”: the “inhibition of Thermus-Deinoccoccus bacterial RNAP” value in data set [3] is given as “does not inhibit”. In addition, in data set [4], the resistance to denaturation result was “complete resistance to tested thermal and chemical denaturants”. The “inhibition of Gram-positive bacterial RNAP” value in data set [5] is reported as “does not inhibit”. In addition, the resistance to proteolysis result in data set [6] was “complete resistance to tested mesophilic endo- and exopeptidease”.
